# Measurements reported in US20250312345A1, “NON-COVALENT INHIBITORS OF THE MAIN PROTEASE OF SARS-COV-2 AND METHODS OF USE” (YALE UNIVERSITY, priority 2022, published 2025).
# Where two headings read alike, the source gives them in different places.
# Experiments:
# [1] = target: SARS-CoV-2 M^pro (Severe acute respiratory syndrome coronavirus 2, UniProt P0DTD1); experiment: biochemical; assay type: biochemical
# [2] = tested on: SARS-CoV-2 replicon; experiment: microbe, parasite or virus in culture; assay type: cell-based; details: for IC50: read-out: calculated IC50, compound alone
# [3] = tested on: normal human bronchial epithelial cells (NHBE); details: for CC50: human
# [4] = tested on: Vero E6 cells; details: African green monkey
# [5] = Thermodynamic aqueous solubility, shake-flask; assay type: physicochemical; details: 48 h
# Protocol: The calibration and measurement (after 48 h of stirring) were performed on the same day.
# [6] = tested on: normal human bronchial epithelial cells (NHBE); details: cited from earlier work
# [7] = tested on: Vero E6 cells; details: cited from earlier work
# [8] = PAMPA assay; details: PBS pH 7.4, 5% DMSO, 18 hours, room temperature
# [9] = tested on: SARS-CoV-2 replicon; assay type: cell-based
# [10] = tested on: SARS-CoV-2 replication; experiment: Serum and lung tissue extracts tested on SARS-CoV-2 replication in cell culture; assay type: cell-based; details: extracts of mice dosed with compound 61
# [11] = target: HERG ion channel (Homo sapiens, UniProt Q12809); experiment: In vitro pharmacological profiling, HERG; details: at high concentrations
# HERG ion channel, sequence (Q12809 whole entry, canonical isoform): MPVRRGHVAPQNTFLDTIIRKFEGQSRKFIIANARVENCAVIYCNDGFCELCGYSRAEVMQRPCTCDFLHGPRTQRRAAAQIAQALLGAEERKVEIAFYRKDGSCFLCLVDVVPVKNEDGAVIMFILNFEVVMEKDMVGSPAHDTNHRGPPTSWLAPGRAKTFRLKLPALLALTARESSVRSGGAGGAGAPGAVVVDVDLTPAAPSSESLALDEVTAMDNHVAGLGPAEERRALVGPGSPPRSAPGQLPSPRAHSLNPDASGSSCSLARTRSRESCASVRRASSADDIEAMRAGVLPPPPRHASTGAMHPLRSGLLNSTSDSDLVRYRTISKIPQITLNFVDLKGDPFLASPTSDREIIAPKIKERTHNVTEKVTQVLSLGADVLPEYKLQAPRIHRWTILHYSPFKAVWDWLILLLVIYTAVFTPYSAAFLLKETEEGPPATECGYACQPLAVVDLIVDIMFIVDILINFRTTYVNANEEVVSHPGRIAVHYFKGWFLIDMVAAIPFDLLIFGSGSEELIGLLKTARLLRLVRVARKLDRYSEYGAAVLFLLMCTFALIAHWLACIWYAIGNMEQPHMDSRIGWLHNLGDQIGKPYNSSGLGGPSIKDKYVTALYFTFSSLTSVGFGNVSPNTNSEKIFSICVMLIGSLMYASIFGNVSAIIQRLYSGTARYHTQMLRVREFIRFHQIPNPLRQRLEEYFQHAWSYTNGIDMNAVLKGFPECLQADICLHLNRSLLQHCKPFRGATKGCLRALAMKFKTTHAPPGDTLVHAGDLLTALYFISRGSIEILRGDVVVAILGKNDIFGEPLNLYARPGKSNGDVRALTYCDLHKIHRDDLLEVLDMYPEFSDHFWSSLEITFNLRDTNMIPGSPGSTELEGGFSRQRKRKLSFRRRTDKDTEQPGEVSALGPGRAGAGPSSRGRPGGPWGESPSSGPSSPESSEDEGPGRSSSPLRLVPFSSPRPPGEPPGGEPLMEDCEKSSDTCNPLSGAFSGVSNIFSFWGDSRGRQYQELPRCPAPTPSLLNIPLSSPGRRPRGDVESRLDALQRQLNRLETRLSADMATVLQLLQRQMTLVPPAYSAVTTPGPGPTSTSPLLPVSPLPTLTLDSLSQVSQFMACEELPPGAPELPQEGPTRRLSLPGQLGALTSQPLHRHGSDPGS
# Protocol: (§1) Rows represent compounds tested and columns represent targets. Percentage inhibition at 10 μM concentration of the compounds is color-coded. A panel of 35 targets including CYP450 isoforms, ions channels, receptors examined for off-target effects.
# [12] = tested on: panel of 35 targets including CYP450 isoforms, ions channels, receptors; experiment: In vitro pharmacological profiling against targets for adverse drug reactions; details: percentage inhibition at 10 μM
# Protocol: as §1
# [13] = in vitro
# [14] = Britton-Robinson buffer pH 6.5, shake-flask, 21-22° C.
# [15] = read-out: CC50 NHBE, Table 3, marked g: Zhang et al., ACS Cent. Sci. 2021
# [16] = read-out: CC50 Vero E6, Table 3, marked g: Zhang et al., ACS Cent. Sci. 2021
# [17] = 13 combined with remdesivir, MacSynergy II
structure (smiles),measurement,setting,value
CCNC(=O)COc1cc(Cl)cc(-c2cc(-c3ccccc3C#N)cn(-c3cccnc3)c2=O)c1 [Cmpd 33],IC50,[1]; Table 4,0.5 to 1 µM
O=c1[nH]cc(-c2cc(-c3cc(Cl)cc(OCc4ccccc4)c3)c(=O)n(-c3cccnc3)c2)c(=O)[nH]1 [Compound 21],IC50,"[1]; read-out: IC50 (μM), inhibition of SARS-CoV-2 M^pro, Table 1 and text, 100 nM M^pro, FRET substrate, triplicate",0.128 µM
"N#Cc1ccccc1-c1cc(-c2cc(Cl)cc(Cl)c2)c(=O)n(-c2cccnc2)c1 [Compound 9, 2-(3-(3,5-Dichlorophenyl)-2-oxo-2H-[1,3′-bipyridin]-5-yl)benzonitrile]",IC50,"[2]; Severe acute respiratory syndrome coronavirus 2, BHK",0.0938 µM
Cn1cc(-c2cc(-c3cc(Cl)cc(OCCC(F)(F)F)c3)c(=O)n(-c3cccnc3)c2)c(=O)[nH]c1=O [compound 60],CC50,[3],~95 µM
same,CC50,[4],> 100 µM
same,aq. sol.,[5]; [14],57.0 ± 0.4 µg/mL
O=c1ccn(-c2cc(-c3cc(Cl)cc(OCC4CC4)c3)c(=O)n(-c3cccnc3)c2)c(=O)[nH]1 [Cmpd 54],IC50,[1]; Table 4,1.2 ± 0.1 µM
"O=c1[nH]cc(-c2cc(-c3cc(Cl)cc(OCc4ccc(F)cc4Cl)c3)c(=O)n(-c3cccnc3)c2)c(=O)[nH]1 [Compound 48, 5-(3-(3-Chloro-5-((2-chloro-4-fluorobenzyl)oxy)phenyl)-2-oxo-2H-[1,3′-bipyridin]-5-yl)pyrimidine-2,4(1H,3H)-dione]",CC50,[6],25 ± 5 µM
same,CC50,[7],22 ± 8 µM
same,EC50,[2]; Table 3,120 ± 0.2 µM
same,aq. sol.,[5]; pH 6.5,25.0 ± 0.1 µg/mL
"CCC(CC)COC(=O)[C@H](C)N[P@](=O)(OC[C@H]1O[C@@](C#N)(c2ccc3c(N)ncnn23)[C@H](O)[C@@H]1O)Oc1ccccc1 [remdesivir, reference compound]",CC50,[6]; [15],41 ± 2 µM
same,CC50,[7]; [16],72 ± 28 µM
N#Cc1ccc(F)cc1-c1cc(-c2cc(Cl)cc(OCC3CC3)c2)c(=O)n(-c2cccnc2)c1 [Cmpd 56],IC50,[1]; Table 4,0.427 ± 0.027 µM
O=c1c(-c2cc(Cl)cc(OCC3CC3)c2)cc(-c2ccc(F)cc2F)cn1-c1cccnc1 [Cmpd 55],IC50,[1]; Table 4,~10 µM
"O=c1nc(NO)ccn1[C@@H]1O[C@H](CO)[C@@H](O)[C@H]1O [EIDD-1931, reference compound]",IC50,[2],2.23 µM
COc1cc(CCOc2cc(Cl)cc(-c3cc(-c4ccccc4C#N)cn(-c4cccnc4)c3=O)c2)cc(OC)c1 [Cmpd 30],IC50,[1]; Table 4,> 1 µM
CN(C)c1ccc(C#N)c(-c2cc(-c3cc(Cl)cc(OCC4CC4)c3)c(=O)n(-c3cccnc3)c2)c1 [Cmpd 58],IC50,[1]; Table 4,1.3 ± 0.2 µM
Cn1cc(-c2cc(-c3cc(Cl)cc(OCc4ocnc4C(F)(F)F)c3)c(=O)n(-c3cccnc3)c2)c(=O)[nH]c1=O [Cmpd 65],aq. sol.,[5]; [14],34.5 ± 0.3 µg/mL
Cc1ocnc1COc1cc(Cl)cc(-c2cc(-c3c[nH]c(=O)[nH]c3=O)cn(-c3cccnc3)c2=O)c1 [Cmpd 49],aq. sol.,[5]; [14],7.6 ± 0.7 µg/mL
"N#Cc1ccccc1-c1cc(-c2cc(Cl)cc(OCCC(F)(F)F)c2)c(=O)n(-c2cccnc2)c1 [Compound 47, 2-(3-(3-Chloro-5-(3,3,3-trifluoropropoxy)phenyl)-2-oxo-2H-[1,3′-bipyridin]-5-yl)benzonitrile]",cytotoxicity towards NHBE cells,[3],more cytotoxic
Cn1cc(-c2cc(-c3cc(Cl)cc(OCc4scnc4C(F)(F)F)c3)c(=O)n(-c3cccnc3)c2)c(=O)[nH]c1=O [compound 64],CC50,[3],> 100 µM
same,CC50,[4],> 100 µM
same,PAMPA permeability,[8],1.16 ± 0.32 10^−6 cm/s
same,aq. sol.,[5]; [14],24.8 ± 1.4 µg/mL
N#Cc1[nH]c(=O)ccc1-c1cc(-c2cccc(Cl)c2)c(=O)n(-c2cccnc2)c1 [Cmpd 23],IC50,[1]; Table 4,~10 µM
O=c1ccn(-c2cc(-c3ccccc3)c(=O)n(-c3cccnc3)c2)c(=O)[nH]1 [Cmpd 1],IC50,[1]; Table 4,100 µM
N#Cc1ccccc1-c1cc(-c2cccc(Cl)c2)c(=O)n(-c2ccc[n+]([O-])c2)c1 [Cmpd 10],IC50,[1]; Table 4,15.6 ± 2.37 µM
Cc1ocnc1COc1cc(Cl)cc(-c2cc(-c3ccccc3C#N)cn(-c3cccnc3)c2=O)c1 [compound 50],PAMPA permeability,[8],3.04 ± 0.09 10^−6 cm/s
same,aq. sol.,[5]; [14],13.1 ± 0.3 µg/mL
COc1ccc(-c2cc(-c3cccc(Cl)c3)c(=O)n(-c3cccnc3)c2)c(C#N)n1 [Cmpd 22],IC50,[1]; Table 4,10 to 100 µM
O=c1[nH]cc(-c2cc(-c3cc(Cl)cc(OCc4scnc4C(F)(F)F)c3)c(=O)n(-c3cccnc3)c2)c(=O)[nH]1 [compound 63],CC50,[3],> 100 µM
same,CC50,[4],> 100 µM
Cn1ccnc1COc1cc(Cl)cc(-c2cc(-c3ccccc3C#N)cn(-c3cccnc3)c2=O)c1 [Cmpd 59],IC50,[1]; Table 4,~0.194 µM
COc1cc(F)cc(-c2cc(-c3c[nH]c(=O)[nH]c3=O)cn(-c3cccnc3)c2=O)c1 [Cmpd 20],IC50,[1]; Table 4,10 to 100 µM
Cn1cc(-c2cc(-c3cc(Cl)cc(OCC4CC4)c3)c(=O)n(-c3cccnc3)c2)c(=O)[nH]c1=O [compound 57],CC50,[3],> 100 µM
same,CC50,[4],82 µM
same,aq. sol.,[5]; [14],14.2 ± 0.7 µg/mL
Cc1scnc1COc1cc(Cl)cc(-c2cc(-c3c[nH]c(=O)[nH]c3=O)cn(-c3cccnc3)c2=O)c1 [compound 51],CC50,[3],22 µM
same,CC50,[4],> 100 µM
N#Cc1ccccc1-c1cc(-c2cc(Cl)cc(Cl)c2)c(=O)n(-c2ccc[n+]([O-])c2)c1 [Cmpd 11],IC50,[1]; Table 4,5 to 20 µM
"N#Cc1ccccc1-c1cc(-c2cc(Cl)cc(OCC3CC3)c2)c(=O)n(-c2cccnc2)c1 [Compound 39, 2-(3-(3-Chloro-5-(cyclopropylmethoxy)phenyl)-2-oxo-2H-[1,3′-bipyridin]-5-yl)benzonitrile]",CC50,[6],> 100 µM
same,CC50,[7],> 100 µM
same,PAMPA permeability,[8],4.27 ± 0.07 10^−6 cm/s
same,aq. sol.,[5]; [14],3 ± 2 µg/mL
O=c1[nH]cc(-c2cc(-c3cc(Cl)cc(OCc4ocnc4C(F)(F)F)c3)c(=O)n(-c3cccnc3)c2)c(=O)[nH]1 [compound 62],CC50,[3],> 100 µM
same,CC50,[4],> 100 µM
same,PAMPA permeability,[8],0.57 ± 0.09 10^−6 cm/s
N#Cc1cccc(-c2cc(-c3c[nH]c(=O)[nH]c3=O)cn(-c3cccnc3)c2=O)c1 [Cmpd 19],IC50,[1]; Table 4,~10 µM
O=c1[nH]cc(-c2cc(-c3cc(Cl)cc(OCC4CC4)c3)c(=O)n(-c3cncc4ccccc34)c2)c(=O)[nH]1 [Cmpd 66],IC50,[1]; Table 4,0.04 ± 0.002 µM
"CCCOc1cc(Cl)cc(-c2cc(-c3ccccc3C#N)cn(-c3cccnc3)c2=O)c1 [Compound 13, 2-(3-(3-Chloro-5-propoxyphenyl)-2-oxo-2H-[1,3′-bipyridin]-5-yl)benzonitrile]",CC50,[6]; [15],20 ± 2 µM
same,CC50,[7]; [16],22 ± 7.2 µM
same,factor of improvement in potency over 9,[1]; IC50 of 13 versus 9,ca. 30
same,mean antagonism volume,[9]; [17],0 M^2%
same,mean synergy volume,[9]; [17],30.8 M^2%
same,combination behavior with remdesivir,"[9]; range of combinations of 13 and remdesivir, FIG. 3",statistically significant synergistic behavior
Cn1cc(-c2cc(-c3cc(Cl)c(F)c(OCc4ccccc4Cl)c3)c(=O)n(-c3cccnc3)c2)c(=O)[nH]c1=O [Compound 61],inhibition of SARS-CoV-2 replication by serum and lung tissue extracts,[10],exhibited inhibition
same,inhibition of HERG ion channel,[11],minimal inhibition
same,off-target effects,[12],no significant off-target effects
same,CC50,[13],> 32 µM
same,CC50,[3],> 32.5 µM
same,CC50,[4],> 32.5 µM
same,combination effect with EIDD-1931,"[9]; combination of EIDD-1931 and compound 61, FIG. 6",synergistic effect
same,aq. sol.,[5]; [14],116.5 ± 8.8 µg/mL
O=c1[nH]cc(-c2cc(-c3cc(Cl)c(F)c(OCc4ccccc4Cl)c3)c(=O)n(-c3cccnc3)c2)c(=O)[nH]1 [compound 43],CC50,[3],> 95 µM
same,CC50,[4],> 80 µM
same,PAMPA permeability,[8],0.73 ± 0.05 10^−6 cm/s
same,aq. sol.,[5]; [14],21.8 ± 0.9 µg/mL
